Assay results: ChEMBL document CHEMBL1201862, “PubChem BioAssay data set” (2004)
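Briefly, cells in 96-well plates were exposed to five compound concentrations for 48 h, and endpoints were estimated by linear interpolation. Here, GI50 denotes the concentration required for 50% inhibition of growth.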 Active and inactive are the calls of the source. Cut-off read from the data, not from the text of the source: active = GI50 up to about 1.1 µM and inactive = higher.

What was measured:
Test in all cases: inhibition of tumour cell growth, NCI panel, 48 h
DLD-1 = test system: DLD-1
M19-MEL = test system: M19-MEL
SNB-78 = test system: SNB-78
LXFL 529 = test system: LXFL 529
HOP-18 = test system: HOP-18
DMS-273 = test system: DMS-273
RXF 631 = test system: RXF 631
XF498 = test system: XF498
KM-20L2 = test system: KM-20L2

| Compound | GI50 (DLD-1) | GI50 (M19-MEL) | GI50 (SNB-78) | GI50 (LXFL 529) | GI50 (HOP-18) | GI50 (DMS-273) | GI50 (RXF 631) | GI50 (XF498) | GI50 (KM-20L2) |
| --- | --- | --- | --- | --- | --- | --- | --- | --- | --- |
| CC(C)(C)C(=O)Cc1cc2c(cc1C(=O)O)S(=O)(=O)NC(C(C)(C)C)=C2 | > 100 µM (inactive) | > 100 µM (inactive) | > 100 µM (inactive) | > 100 µM (inactive) | – | – | – | – | – |
| C=C1C(=O)C23C(O)CC4C(C)(C)CCC(O)C4(C)C2CC(OC(C)=O)C1[C@H]3O (some centres undefined) | 1.69 µM (inactive) | 1.61 µM (inactive) | 0.925 µM (active) | 1.07 µM (active) | 2.27 µM (inactive) | 1.65 µM (inactive) | 4.8 µM (inactive) | 1.91 µM (inactive) | 3.15 µM (inactive) |
| CC1(C)N=C(Oc2ccccc2)n2nccc2N1 | > 100 µM (inactive) | > 100 µM (inactive) | – | > 100 µM (inactive) | > 100 µM (inactive) | 66.7 µM (inactive) | – | > 100 µM (inactive) | > 100 µM (inactive) |
| Nc1n[nH]c(N)n1 [GUANAZOLE] | 9840 µM (inactive) | > 10000 µM (inactive) | 5250 µM (inactive) | – | 5610 µM (inactive) | 914 µM (inactive) | – | 237 µM (inactive) | 7890 µM (inactive) |
| CCCCCCCCCCCCCCCC[N+](C)(C)Cc1ccc(C[N+](C)(C)CCCCCCCCCCCCCCCC)cc1 | 3.48 µM (inactive) | 2.67 µM (inactive) | 2.73 µM (inactive) | 8.09 µM (inactive) | 1.67 µM (inactive) | 1.98 µM (inactive) | 2.19 µM (inactive) | – | 3.62 µM (inactive) |
| COC(=O)c1cc(C)n(NC(=O)OC(C)(C)C)c1C | > 100 µM (inactive) | > 100 µM (inactive) | 95.1 µM (inactive) | > 100 µM (inactive) | – | > 100 µM (inactive) | – | – | > 100 µM (inactive) |
| COc1ccc(C2S/C(=C\c3cc(OC)c(OC)c(OC)c3)C(=O)N2NC(=O)Cc2ccccc2)cc1 (centres undefined) | 94.2 µM (inactive) | > 100 µM (inactive) | – | 61.9 µM (inactive) | > 100 µM (inactive) | > 100 µM (inactive) | – | – | – |
| CC1=CC2=C(OCO1)C(=O)c1ccccc1C2=O | 21.5 µM (inactive) | 1.79 µM (inactive) | 33.1 µM (inactive) | 21.7 µM (inactive) | 12.4 µM (inactive) | 10.5 µM (inactive) | – | – | 22.9 µM (inactive) |
| CC12CCCCC1C(=O)C2(Cl)Cl (centres undefined) | 1.97 µM (inactive) | – | 4.44 µM (inactive) | 2.28 µM (inactive) | – | 2.21 µM (inactive) | 1.92 µM (inactive) | 2.07 µM (inactive) | – |
| Nc1ccn(CCOC(c2ccccc2)P(=O)(O)O)c(=O)n1 (centres undefined) | > 100 µM (inactive) | > 100 µM (inactive) | > 100 µM (inactive) | > 100 µM (inactive) | – | > 100 µM (inactive) | – | > 100 µM (inactive) | > 100 µM (inactive) |
| Cn1ncc2cc3c(Nc4ccc(Cl)cc4)cccc3nc21 | 20.3 µM (inactive) | 22.1 µM (inactive) | 34 µM (inactive) | 15.6 µM (inactive) | – | > 10 µM (inactive) | 17.7 µM (inactive) | 8.11 µM (inactive) | 14.7 µM (inactive) |
| O=c1[nH]c2cccccc-2c1-c1nc2ccccc2[nH]1 | 32.4 µM (inactive) | 34.2 µM (inactive) | 25.7 µM (inactive) | 22.2 µM (inactive) | – | 15.5 µM (inactive) | – | 18.5 µM (inactive) | 46.5 µM (inactive) |
| CCCCN(CCCC)CC(C(=O)Nc1ccccc1)/C(C)=N\NC(=O)c1ccncc1 (centres undefined) | > 100 µM (inactive) | 68.9 µM (inactive) | > 100 µM (inactive) | – | – | > 100 µM (inactive) | – | > 100 µM (inactive) | > 100 µM (inactive) |
| COc1ccc(Cc2nccc3cc(OC)c(OC)cc23)cc1 | > 100 µM (inactive) | 98.4 µM (inactive) | > 100 µM (inactive) | 28 µM (inactive) | – | – | – | 23.8 µM (inactive) | > 100 µM (inactive) |
| COc1ccccc1C(N)c1ccccc1 (centres undefined) | > 100 µM (inactive) | > 100 µM (inactive) | > 100 µM (inactive) | > 100 µM (inactive) | > 100 µM (inactive) | > 100 µM (inactive) | – | – | > 100 µM (inactive) |
| C=CCN(N=O)C(=O)NCCCC(NC(C)=O)C(=O)NCc1ccccc1 (centres undefined) | – | > 100 µM (inactive) | – | > 100 µM (inactive) | 10.9 µM (inactive) | > 100 µM (inactive) | > 100 µM (inactive) | > 100 µM (inactive) | > 100 µM (inactive) |
| CCn1c(=O)nc2n(-c3ccccc3)c3ccccc3nc-2c1=O | 28.3 µM (inactive) | 10.6 µM (inactive) | 49.8 µM (inactive) | 28.4 µM (inactive) | 61.4 µM (inactive) | 12.7 µM (inactive) | – | 4.83 µM (inactive) | 10 µM (inactive) |
| NC(=O)c1csc(C2OC(COP(=O)(O)CP(=O)(O)OCC3OC(n4cnc5c(N)ncnc54)C(O)C3O)C(O)C2O)n1 (centres undefined) | > 100 µM (inactive) | > 100 µM (inactive) | > 100 µM (inactive) | > 100 µM (inactive) | > 100 µM (inactive) | 85.5 µM (inactive) | > 100 µM (inactive) | > 100 µM (inactive) | > 100 µM (inactive) |
| Cc1ccc(NC(=O)CCC(=O)C2CC(=O)CC/C2=N\NC(=O)c2cc3ccccc3cc2O)cc1C (centres undefined) | 30.5 µM (inactive) | 27.4 µM (inactive) | 28.6 µM (inactive) | 21.4 µM (inactive) | 21.8 µM (inactive) | 13.2 µM (inactive) | 32.6 µM (inactive) | 31.1 µM (inactive) | 27.5 µM (inactive) |
| CCOC(=O)c1cc2c(cn1)[nH]c1cccc(N)c12 | > 100 µM (inactive) | > 100 µM (inactive) | > 100 µM (inactive) | > 100 µM (inactive) | > 100 µM (inactive) | > 100 µM (inactive) | – | > 100 µM (inactive) | – |
| COC1CC(OC)C2OC(c3ccccc3)OCC2O1 (centres undefined) | > 100 µM (inactive) | > 100 µM (inactive) | > 100 µM (inactive) | > 100 µM (inactive) | > 100 µM (inactive) | – | – | – | > 100 µM (inactive) |
| Cc1cccc2c(O)cc(=O)oc12 | > 100 µM (inactive) | > 100 µM (inactive) | > 100 µM (inactive) | > 100 µM (inactive) | > 100 µM (inactive) | – | – | > 100 µM (inactive) | > 100 µM (inactive) |
| CCCCn1c(-c2ccccc2)cs/c1=N\N=C1C=C(C(C)(C)C)C(=O)C(C(C)(C)C)=C1 | – | > 100 µM (inactive) | – | > 100 µM (inactive) | – | > 100 µM (inactive) | > 100 µM (inactive) | > 100 µM (inactive) | > 100 µM (inactive) |
